How the values were obtained:
[1] = target: T1, Prostaglandin G/H synthase 2 (Homo sapiens) (UniProt P35354); assay: Compound was evaluated for percent inhibition of Prostaglandin G/H synthase 2 at the concentration of 0.3 uM
T1 sequence (whole entry): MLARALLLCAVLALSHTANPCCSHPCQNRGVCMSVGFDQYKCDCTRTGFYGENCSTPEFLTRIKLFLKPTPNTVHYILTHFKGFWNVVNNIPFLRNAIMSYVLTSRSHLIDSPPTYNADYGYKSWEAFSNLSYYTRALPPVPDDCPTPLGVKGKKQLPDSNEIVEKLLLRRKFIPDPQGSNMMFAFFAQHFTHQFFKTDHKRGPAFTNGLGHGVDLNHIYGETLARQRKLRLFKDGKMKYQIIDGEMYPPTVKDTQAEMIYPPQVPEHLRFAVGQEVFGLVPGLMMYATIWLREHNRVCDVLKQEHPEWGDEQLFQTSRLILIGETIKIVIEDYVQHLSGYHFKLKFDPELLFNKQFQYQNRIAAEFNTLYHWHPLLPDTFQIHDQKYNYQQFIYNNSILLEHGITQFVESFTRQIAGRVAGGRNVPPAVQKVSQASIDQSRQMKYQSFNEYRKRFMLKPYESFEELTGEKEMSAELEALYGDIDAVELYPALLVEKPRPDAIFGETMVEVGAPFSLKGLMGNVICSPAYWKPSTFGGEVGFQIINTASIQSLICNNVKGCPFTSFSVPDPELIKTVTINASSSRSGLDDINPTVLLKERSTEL

[2] = target: T2, Prostaglandin G/H synthase 1 (Homo sapiens, UniProt P23219); assay: Inhibitory activity was evaluated against human Prostaglandin G/H synthase 1 was determined
[3] = target: T3, Prostaglandin G/H synthase 2 (Homo sapiens, UniProt P35354); assay: Inhibitory activity was evaluated against human Prostaglandin G/H synthase 2 was determined
T3 sequence (P35354 whole entry): T1 sequence (whole entry)

[4] = target: T2, Prostaglandin G/H synthase 1; assay: Compound was evaluated for percent inhibition of Prostaglandin G/H synthase 1 at the concentration of 0.3 uM
[5] = target: T2, Prostaglandin G/H synthase 1; assay: Compound was evaluated for the inhibition of Prostaglandin G/H synthase 1 at the concentration of 3 uM
[6] = target: T1, Prostaglandin G/H synthase 2 (Homo sapiens); assay: Compound was evaluated for percent inhibition of Prostaglandin G/H synthase 2 at the concentration of 10 uM
[7] = target: T2, Prostaglandin G/H synthase 1; assay: Compound was evaluated for percent inhibition of Prostaglandin G/H synthase 1 at the concentration of 10 uM

T2 sequence (P23219 whole entry): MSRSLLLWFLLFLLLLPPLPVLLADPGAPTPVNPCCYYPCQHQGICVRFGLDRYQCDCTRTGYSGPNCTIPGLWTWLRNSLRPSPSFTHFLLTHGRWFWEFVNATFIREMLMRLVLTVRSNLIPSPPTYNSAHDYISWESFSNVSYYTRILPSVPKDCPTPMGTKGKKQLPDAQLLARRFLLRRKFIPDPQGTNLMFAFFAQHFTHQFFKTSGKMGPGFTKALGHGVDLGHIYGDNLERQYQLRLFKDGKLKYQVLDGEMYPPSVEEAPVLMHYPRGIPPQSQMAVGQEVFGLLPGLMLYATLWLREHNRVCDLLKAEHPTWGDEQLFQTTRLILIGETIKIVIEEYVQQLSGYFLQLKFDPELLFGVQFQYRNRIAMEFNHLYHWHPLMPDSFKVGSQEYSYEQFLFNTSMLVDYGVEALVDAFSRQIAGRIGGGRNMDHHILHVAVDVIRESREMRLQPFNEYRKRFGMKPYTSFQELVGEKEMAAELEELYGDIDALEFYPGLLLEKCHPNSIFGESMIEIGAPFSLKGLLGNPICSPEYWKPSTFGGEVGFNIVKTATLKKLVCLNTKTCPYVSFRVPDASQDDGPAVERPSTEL

CCC(=O)NCCCN1c2ccccc2Sc2ccccc21
inhibition [1]: 18%

CC(O)CN1c2ccccc2Sc2ccccc21 (centres undefined)
IC50 [2]: 1000 nM
IC50 [3]: 5000 nM

O=C(CCC1CCCCC1)NCCCN1c2ccccc2Sc2ccccc21
inhibition [1]: 15%

CC(S)CN1c2ccccc2Sc2ccccc21 (centres undefined)
IC50 [2]: 500 nM
IC50 [3]: 4000 nM

O=C(COc1ccc(Br)cc1)NCCCN1c2ccccc2Sc2ccccc21
inhibition [1]: 15%

CC(C)(Oc1ccc(Cl)cc1)C(=O)NCCCN1c2ccccc2Sc2ccccc21
inhibition [4]: 13%
inhibition [5]: 17%
IC50 [3]: 1300 nM
inhibition [1]: 44%

CC(C)(COc1ccc(Br)cc1)C(=O)NCCCN1c2ccccc2Sc2ccccc21
inhibition [4]: 12%
inhibition [5]: 19%
IC50 [3]: 21000 nM
inhibition [1]: 34%

OCCN1c2ccccc2Sc2ccccc21
inhibition [6]: 14%
inhibition [7]: 12%

O=C(O)CCN1c2ccccc2Sc2ccccc21
inhibition [6]: 14%
inhibition [7]: 25%

Source: ChEMBL document CHEMBL1130767, “Discovery of a new cyclooxygenase-2 lead compound through 3-D database searching and combinatorial chemistry” (Bioorg Med Chem Lett, 1998)
